± gives the standard deviation of the averaged measurements.
How the values were obtained:
MDV3100 [1] = compound: T1, CNC(=O)c1ccc(N2C(=S)N(c3ccc(C#N)c(C(F)(F)F)c3)C(=O)C2(C)C)cc1F [MDV3100]; assay: area under dose-response curve of surviving fraction (unscaled, Aref=0) (surviving fraction x log10(nM)); higher = more resistant; conditions: exposure time: 5 days; dose range 0.5-1000 nM
Summary of the method: (§1)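 Inhibitor was applied to tumour cell lines at eight concentrations (0.5 to 1000 nM) for five days in 384-well plates. Luminescence from CellTiter-Glo, scaled to DMSO-only wells, gave surviving fractions in three screens per line, and these were fitted by 3-parameter logistic regression with the drc R package. The area under the curve is an unscaled activity area. Aref was 0, and dose was on a log10 scale.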

SAPACITABINE [2] = compound: T2, CCCCCCCCCCCCCCCC(=O)Nc1ccn([C@@H]2O[C@H](CO)[C@@H](O)[C@@H]2C#N)c(=O)n1 [SAPACITABINE]; assay: as above; conditions: exposure time: 5 days; dose range 0.5-1000 nM
Summary of the method: as §1

CANERTINIB [3] = compound: T3, C=CC(=O)Nc1cc2c(Nc3ccc(F)c(Cl)c3)ncnc2cc1OCCCN1CCOCC1 [CANERTINIB]; assay: as above; conditions: exposure time: 5 days; dose range 0.5-1000 nM
Summary of the method: as §1

[4] = compound: Cn1cc(C2=Nc3cc(NC(=O)C(N)C4CCCCC4)cc4c3C2=CNNC4=O)cn1; assay: as above; conditions: exposure time: 5 days; dose range 0.5-1000 nM
Summary of the method: as §1

TIOGUANINE [5] = compound: T4, Nc1nc2[nH]cnc2c(=S)[nH]1 [TIOGUANINE]; assay: as above; conditions: exposure time: 5 days; dose range 0.5-1000 nM
Summary of the method: as §1

AFATINIB [6] = compound: T5, CN(C)C/C=C/C(=O)Nc1cc2c(Nc3ccc(F)c(Cl)c3)ncnc2cc1O[C@H]1CCOC1 [AFATINIB]; assay: as above; conditions: exposure time: 5 days; dose range 0.5-1000 nM
Summary of the method: as §1

SNX-5422 [7] = compound: T6, CC1(C)CC(=O)c2c(C(F)(F)F)nn(-c3ccc(C(N)=O)c(N[C@H]4CC[C@H](OC(=O)CN)CC4)c3)c2C1 [SNX-5422]; assay: as above; conditions: exposure time: 5 days; dose range 0.5-1000 nM
Summary of the method: as §1

BI-2536 [8] = compound: T7, CC[C@@H]1C(=O)N(C)c2cnc(Nc3ccc(C(=O)NC4CCN(C)CC4)cc3OC)nc2N1C1CCCC1 [BI-2536]; assay: as above; conditions: exposure time: 5 days; dose range 0.5-1000 nM
Summary of the method: as §1

MDV3100 [9] = compound: T1, MDV3100; assay: surviving fraction relative to DMSO-only wells; higher = less growth inhibition; conditions: exposure time: 5 days
Summary of the method: (§2)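 Inhibitors were tested at 0.5, 1, 5, 10, 50, 100, 500 and 1000 nM, applied continuously for five days beginning 24 hours after log-phase tumour cells were seeded at 250–500 per well in 384-well plates. CellTiter-Glo luminescence served as the viability measure, expressed as surviving fraction against the median of DMSO-only wells. Each line, screened three times, was kept only with replicate Pearson r >0.7 and median Z' >0.3.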

SAPACITABINE [10] = compound: T2, SAPACITABINE; assay: as above; conditions: exposure time: 5 days
Summary of the method: as §2

CANERTINIB [11] = compound: T3, CANERTINIB; assay: as above; conditions: exposure time: 5 days
Summary of the method: as §2

[12] = compound: Cn1cc(C2=Nc3cc(NC(=O)C(N)C4CCCCC4)cc4c3C2=CNNC4=O)cn1; assay: as above; conditions: exposure time: 5 days
Summary of the method: as §2

TIOGUANINE [13] = compound: T4, TIOGUANINE; assay: as above; conditions: exposure time: 5 days
Summary of the method: as §2

AFATINIB [14] = compound: T5, AFATINIB; assay: as above; conditions: exposure time: 5 days
Summary of the method: as §2

SNX-5422 [15] = compound: T6, SNX-5422; assay: as above; conditions: exposure time: 5 days
Summary of the method: as §2

BI-2536 [16] = compound: T7, BI-2536; assay: as above; conditions: exposure time: 5 days
Summary of the method: as §2

HS57T LUNG
area under dose-response curve (MDV3100 [1]): 3.03 | area under dose-response curve (SAPACITABINE [2]): 2.37 | area under dose-response curve (CANERTINIB [3]): 2.92 | area under dose-response curve [4]: 2.49 | area under dose-response curve (TIOGUANINE [5]): 3.23 | area under dose-response curve (AFATINIB [6]): 3.15 | area under dose-response curve (SNX-5422 [7]): 2.06 | area under dose-response curve (BI-2536 [8]): 1.08

HMLE3 BREAST
area under dose-response curve (MDV3100 [1]): 3.23 | area under dose-response curve (SAPACITABINE [2]): 2.03 | area under dose-response curve (CANERTINIB [3]): 2.91 | area under dose-response curve [4]: 2.79 | area under dose-response curve (TIOGUANINE [5]): 3.06 | area under dose-response curve (AFATINIB [6]): 3.07 | area under dose-response curve (SNX-5422 [7]): 1.89 | area under dose-response curve (BI-2536 [8]): 1.26 | surviving fraction (MDV3100 [9]; 0.5 nM): 0.981 ± 0.05 | surviving fraction (MDV3100 [9]; 1 nM): 0.951 ± 0.018 | surviving fraction (MDV3100 [9]; 5 nM): 0.984 ± 0.026 | surviving fraction (MDV3100 [9]; 10 nM): 0.946 ± 0.049 | surviving fraction (MDV3100 [9]; 50 nM): 0.975 ± 0.12 | surviving fraction (MDV3100 [9]; 100 nM): 1 ± 0.09 | surviving fraction (MDV3100 [9]; 500 nM): 0.98 ± 0.058 | surviving fraction (MDV3100 [9]; 1000 nM): 1.03 ± 0.083 | surviving fraction (SAPACITABINE [10]; 0.5 nM): 0.846 ± 0.045 | surviving fraction (SAPACITABINE [10]; 1 nM): 0.738 ± 0.037 | surviving fraction (SAPACITABINE [10]; 5 nM): 0.898 ± 0.017 | surviving fraction (SAPACITABINE [10]; 10 nM): 0.244 ± 0.014 | surviving fraction (SAPACITABINE [10]; 50 nM): 0.892 ± 0.095 | surviving fraction (SAPACITABINE [10]; 100 nM): 0.67 ± 0.11 | surviving fraction (SAPACITABINE [10]; 500 nM): 0.344 ± 0.039 | surviving fraction (SAPACITABINE [10]; 1000 nM): 0.175 ± 0.0071 | surviving fraction (CANERTINIB [11]; 0.5 nM): 0.883 ± 0.0092 | surviving fraction (CANERTINIB [11]; 1 nM): 0.909 ± 0.082 | surviving fraction (CANERTINIB [11]; 5 nM): 0.891 ± 0.044 | surviving fraction (CANERTINIB [11]; 10 nM): 0.898 ± 0.018 | surviving fraction (CANERTINIB [11]; 50 nM): 0.913 ± 0.024 | surviving fraction (CANERTINIB [11]; 100 nM): 0.838 ± 0.14 | surviving fraction (CANERTINIB [11]; 500 nM): 0.847 ± 0.028 | surviving fraction (CANERTINIB [11]; 1000 nM): 0.872 ± 0.1 | surviving fraction ([12]; 0.5 nM): 1.02 ± 0.013 | surviving fraction ([12]; 1 nM): 0.984 ± 0.069 | surviving fraction ([12]; 5 nM): 1.01 ± 0.069 | surviving fraction ([12]; 10 nM): 1.05 ± 0.1 | surviving fraction ([12]; 50 nM): 0.928 ± 0.015 | surviving fraction ([12]; 100 nM): 0.924 ± 0.05 | surviving fraction ([12]; 500 nM): 0.319 ± 0.049 | surviving fraction ([12]; 1000 nM): 0.0807 ± 0.0095 | surviving fraction (TIOGUANINE [13]; 0.5 nM): 0.914 ± 0.068 | surviving fraction (TIOGUANINE [13]; 1 nM): 0.902 ± 0.015 | surviving fraction (TIOGUANINE [13]; 5 nM): 0.95 ± 0.028 | surviving fraction (TIOGUANINE [13]; 10 nM): 0.974 ± 0.019 | surviving fraction (TIOGUANINE [13]; 50 nM): 0.97 ± 0.1 | surviving fraction (TIOGUANINE [13]; 100 nM): 0.945 ± 0.072 | surviving fraction (TIOGUANINE [13]; 500 nM): 0.905 ± 0.049 | surviving fraction (TIOGUANINE [13]; 1000 nM): 0.851 ± 0.09 | surviving fraction (AFATINIB [14]; 0.5 nM): 0.989 ± 0.042 | surviving fraction (AFATINIB [14]; 1 nM): 1.02 ± 0.034 | surviving fraction (AFATINIB [14]; 5 nM): 0.993 ± 0.054 | surviving fraction (AFATINIB [14]; 10 nM): 0.904 ± 0.074 | surviving fraction (AFATINIB [14]; 50 nM): 0.905 ± 0.035 | surviving fraction (AFATINIB [14]; 100 nM): 0.946 ± 0.04 | surviving fraction (AFATINIB [14]; 500 nM): 0.842 ± 0.087 | surviving fraction (AFATINIB [14]; 1000 nM): 0.77 ± 0.021 | surviving fraction (SNX-5422 [15]; 0.5 nM): 0.975 ± 0.02 | surviving fraction (SNX-5422 [15]; 1 nM): 1 ± 0.054 | surviving fraction (SNX-5422 [15]; 5 nM): 0.999 ± 0.074 | surviving fraction (SNX-5422 [15]; 10 nM): 1.09 ± 0.032 | surviving fraction (SNX-5422 [15]; 50 nM): 0.0933 ± 0.011 | surviving fraction (SNX-5422 [15]; 100 nM): 0.0567 ± 0.0045 | surviving fraction (SNX-5422 [15]; 500 nM): 0.0233 ± 0.0015 | surviving fraction (SNX-5422 [15]; 1000 nM): 0.027 ± 0.001 | surviving fraction (BI-2536 [16]; 0.5 nM): 1.04 ± 0.14 | surviving fraction (BI-2536 [16]; 1 nM): 1.09 ± 0.1 | surviving fraction (BI-2536 [16]; 5 nM): 0.819 ± 0.076 | surviving fraction (BI-2536 [16]; 10 nM): 0.216 ± 0.0056 | surviving fraction (BI-2536 [16]; 50 nM): 0.0467 ± 0.014 | surviving fraction (BI-2536 [16]; 100 nM): 0.0453 ± 0.015 | surviving fraction (BI-2536 [16]; 500 nM): 0.0567 ± 0.011 | surviving fraction (BI-2536 [16]; 1000 nM): 0.063 ± 0.007
